The target of one assay is PARG (Homo sapiens, UniProt Q86W56). Put plainly: Biochemical assay (PARG, TFMU-ADPr substrate). The conditions noted are these: PARG, TFMU-ADPr substrate.
For a further assay, the system named is HCC1806. Put plainly: Cell viability assay (CellTiter-Glo). Format: cell-based, Human. The conditions noted are these: Homo sapiens, HCC1806, 168 h, HCC1806, 7 days, CellTiter-Glo; read-out: IC50 (nM) in cell viability assay.

Results on 22 compounds are retold here after US20260258035A1, “FIVE-MEMBERED AND SIX-MEMBERED NITROGEN-CONTAINING COMPOUND, AND INTERMEDIATE, PREPARATION METHOD AND USE THEREOF” (HANGZHOU SYNRX THERAPEUTICS BIOMEDICAL TECHNOLOGY CO., LTD., priority 2022, published 2026).

Sequence of PARG (Q86W56 whole entry): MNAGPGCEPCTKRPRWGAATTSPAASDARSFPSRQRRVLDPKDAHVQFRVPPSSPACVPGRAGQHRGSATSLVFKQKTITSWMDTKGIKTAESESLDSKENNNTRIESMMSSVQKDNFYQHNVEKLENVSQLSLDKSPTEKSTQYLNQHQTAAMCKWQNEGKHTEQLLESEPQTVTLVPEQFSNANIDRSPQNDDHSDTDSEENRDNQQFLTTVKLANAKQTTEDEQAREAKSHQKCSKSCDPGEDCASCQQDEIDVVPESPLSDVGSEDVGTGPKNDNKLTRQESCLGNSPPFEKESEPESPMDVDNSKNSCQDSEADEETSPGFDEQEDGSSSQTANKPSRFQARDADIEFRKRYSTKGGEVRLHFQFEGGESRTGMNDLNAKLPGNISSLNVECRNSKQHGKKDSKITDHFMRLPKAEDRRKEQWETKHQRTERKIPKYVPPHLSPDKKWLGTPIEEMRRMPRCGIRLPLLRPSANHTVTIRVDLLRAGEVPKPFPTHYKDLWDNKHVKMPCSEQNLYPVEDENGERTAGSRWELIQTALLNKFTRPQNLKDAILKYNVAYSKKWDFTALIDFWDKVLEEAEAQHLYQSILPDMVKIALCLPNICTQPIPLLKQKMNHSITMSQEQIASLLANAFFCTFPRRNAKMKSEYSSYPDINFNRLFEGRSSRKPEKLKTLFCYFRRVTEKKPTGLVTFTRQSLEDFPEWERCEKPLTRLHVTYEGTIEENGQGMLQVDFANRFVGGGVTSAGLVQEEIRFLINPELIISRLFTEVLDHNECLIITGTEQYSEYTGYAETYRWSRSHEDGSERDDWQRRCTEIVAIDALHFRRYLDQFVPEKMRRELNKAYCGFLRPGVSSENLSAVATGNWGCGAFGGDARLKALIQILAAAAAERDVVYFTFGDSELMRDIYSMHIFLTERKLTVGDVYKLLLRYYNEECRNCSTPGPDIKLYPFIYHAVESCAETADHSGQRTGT

In the case of `CC(C)C(=O)N1CCN(c2cc(S(=O)(=O)NC3(C)CC3)cn3c(-c4nnc(C(F)F)s4)nc(C#N)c23)C[C@H]1C` [Example 165, (R)-1-cyano-3-(5-(difluoromethyl)-1,3,4-thiadiazol-2-yl)-8-(4-isobutyryl-3-methylpiperazin-1-yl)-N-(1-methylcyclopropyl)imidazo[1,5-a]pyridine-6-sulfonamide], the IC50 against PARG worked out at 20 nM; with HCC1806, 1000 nM.
On to `COC1(C(=O)N2CCN(c3cc(S(=O)(=O)NC4(C)CC4)cn4c(-c5nnc(C(F)F)s5)ncc34)C[C@H]2CO)CC1` [Example 201, (S)-3-(5-(difluoromethyl)-1,3,4-thiadiazol-2-yl)-8-(3-(hydroxymethyl)-4-(1-methoxycyclopropane-1-carbonyl)piperazin-1-yl)-N-(1-methylcyclopropyl)imidazo[1,5-a]pyridine-6-sulfonamide], for which the half-inhibitory concentration (IC50) at PARG stood at 0.14 nM; in the assay on HCC1806, 9.06 nM.
With `COC1(C(=O)N2CCN(c3cc(S(=O)(=O)NC4(C)CC4)cn4c(-c5nnc(C(F)F)s5)ncc34)C[C@H]2CF)CC1` [Example 200, (S)-3-(5-(difluoromethyl)-1,3,4-thiadiazol-2-yl)-8-(3-(fluoromethyl)-4-(1-methoxycyclopropane-1-carbonyl)piperazin-1-yl)-N-(1-methylcyclopropyl)imidazo[1,5-a]pyridine-6-sulfonamide], the IC50 at PARG was 0.63 nM; in the assay with HCC1806, 54.6 nM.
Regarding `COC1(C(=O)N2CCN(c3cc(S(=O)(=O)NC4(C)COC4)cn4c(-c5nnc(C(F)(F)F)s5)ncc34)CC2)CC1` [Example 177, 8-(4-(1-methoxycyclopropane-1-carbonyl)piperazin-1-yl)-N-(3-methyloxetan-3-yl)-3-(5-(trifluoromethyl)-1,3,4-thiadiazol-2-yl)imidazo[1,5-a]pyridine-6-sulfonamide], the results for the IC50 at PARG and in the assay on HCC1806 were 0.54 nM and 15 nM, respectively.
Consider `CC1(NS(=O)(=O)c2cc(N3CCN(C(=O)C4CCOC4)CC3)c3cnc(-c4nnc(C(F)(F)F)s4)n3c2)CC1` (centres unmarked) [Example 293, N-(1-methylcyclopropyl)-8-(4-(tetrahydrofuran-3-carbonyl)piperazin-1-yl)-3-(5-(trifluoromethyl)-1,3,4-thiadiazol-2-yl)imidazo[1,5-a]pyridine-6-sulfonamide], for which the IC50 against PARG was 9.12 nM; in the assay on HCC1806, 97 nM.
As for `CC(=O)N1CCN(c2cc(S(=O)(=O)NC3(C#N)CC3)cn3c(-c4nnc(C(F)(F)F)s4)ncc23)C[C@H]1C` [Example 216, (R)-8-(4-acetyl-3-methylpiperazin-1-yl)-N-(1-cyanocyclopropyl)-3-(5-(trifluoromethyl)-1,3,4-thiadiazol-2-yl)imidazo[1,5-a]pyridine-6-sulfonamide], the IC50 was 31.6 nM against PARG and 2340 nM in the assay on HCC1806.
For `[2H]C([2H])([2H])OCC1CN(c2cc(S(=O)(=O)NC3(C)COC3)cn3c(-c4nnc(C(F)F)s4)ncc23)CCN1` (centres unmarked) [Example 392, 3-(5-(difluoromethyl)-1,3,4-thiadiazol-2-yl)-8-(3-((methoxy-d3)methyl)piperazin-1-yl)-N-(3-methyloxetan-3-yl)imidazo[1,5-a]pyridine-6-sulfonamide] the same measures were 11 nM and 132 nM.
As for `CC1(NS(=O)(=O)c2cc(N3CCNC4(CC4)C3)c3cnc(-c4nnc(C(F)F)s4)n3c2)COC1` [Example 365, 3-(5-(difluoromethyl)-1,3,4-thiadiazol-2-yl)-N-(3-methyloxetan-3-yl)-8-(4,7-diazaspiro[2.5]octan-7-yl)imidazo[1,5-a]pyridine-6-sulfonamide], the IC50 was 8.58 nM against PARG and 1070 nM with HCC1806.
In the case of `CN1CC2CN(c3cc(S(=O)(=O)NC4(C)COC4)cn4c(-c5nnc(C(F)(F)F)s5)ncc34)CCN2C(=O)C12CC2` (centres unmarked) [Example 393, 8-(2′-methyl-4′-oxohexahydro-4′H,8′H-spiro[cyclopropane-1,3′-pyrazino[1,2-a]pyrazin]-8′-yl)-N-(3-methyloxetan-3-yl)-3-(5-(trifluoromethyl)-1,3,4-thiadiazol-2-yl)imidazo[1,5-a]pyridine-6-sulfonamide], the IC50 against PARG came to 5.75 nM; in the assay on HCC1806, 222 nM.
Turning to `CC(C)C(=O)N1CC2(C=C(c3nc(-c4nnc(C(F)(F)F)s4)n4cc(S(=O)(=O)NC5(C#N)CC5)ccc34)CC2)C1` [Example 389, N-(1-cyanocyclopropyl)-1-(2-isobutyryl-2-azaspiro[3.4]oct-5-en-6-yl)-3-(5-(trifluoromethyl)-1,3,4-thiadiazol-2-yl)imidazo[1,5-a]pyridine-6-sulfonamide], the IC50 on PARG worked out at 20 nM; with HCC1806 it was 2130 nM.
For `C[C@H]1CN(c2cc(S(=O)(=O)NC3(C)COC3)cn3c(-c4nnc(C(F)F)s4)nc(Cl)c23)C[C@H](CO)N1` [Example 402, 1-chloro-3-(5-(difluoromethyl)-1,3,4-thiadiazol-2-yl)-8-((3R,5S)-3-(hydroxymethyl)-5-methylpiperazin-1-yl)-N-(3-methyloxetan-3-yl)imidazo[1,5-a]pyridine-6-sulfonamide] the same measures were 20.9 nM and 1840 nM.
Consider `N#CC1(NS(=O)(=O)c2cc(N3CCN(C(=O)C4(O)CC4)CC3)c3cnc(-c4nnc(C(F)(F)F)s4)n3c2)CC1` [Example 237, N-(1-cyanocyclopropyl)-8-(4-(1-hydroxycyclopropane-1-carbonyl)piperazin-1-yl)-3-(5-(trifluoromethyl)-1,3,4-thiadiazol-2-yl)imidazo[1,5-a]pyridine-6-sulfonamide], for which the IC50 came to 2.88 nM against PARG and 4390 nM in the assay on HCC1806.
With `CC1(NS(=O)(=O)c2cc(N3CCN(C(=O)C4CNC4)CC3)c3cnc(-c4nnc(C(F)(F)F)s4)n3c2)CC1` [Example 277, 8-(4-(azetidine-3-carbonyl)piperazin-1-yl)-N-(1-methylcyclopropyl)-3-(5-(trifluoromethyl)-1,3,4-thiadiazol-2-yl)imidazo[1,5-a]pyridine-6-sulfonamide], the IC50 against PARG was 25.1 nM; in the assay on HCC1806 it was 4470 nM.
Taken in the same sequence, the figures for `CC1(NS(=O)(=O)c2cc(N3CCN(C(=O)C4(F)CNC4)CC3)c3cnc(-c4nnc(C(F)(F)F)s4)n3c2)CC1` [Example 317, 8-(4-(3-fluoroazetidine-3-carbonyl)piperazin-1-yl)-N-(1-methylcyclopropyl)-3-(5-(trifluoromethyl)-1,3,4-thiadiazol-2-yl)imidazo[1,5-a]pyridine-6-sulfonamide] were 3.54 nM and 1140 nM.
With `N#CC1(NS(=O)(=O)c2cc(N3CCN(C(=O)C4NCCS4)CC3)c3cnc(-c4nnc(C(F)(F)F)s4)n3c2)CC1` (centres unmarked) [Example 281, N-(1-cyanocyclopropyl)-8-(4-(thiazolidine-2-carbonyl)piperazin-1-yl)-3-(5-(trifluoromethyl)-1,3,4-thiadiazol-2-yl)imidazo[1,5-a]pyridine-6-sulfonamide], the IC50 against PARG is 66.1 nM; with HCC1806 it was 229 nM.
In the case of `CCNC(=O)N1CCN(c2cc(S(=O)(=O)NC3(C)COC3)cn3c(-c4nnc(C(F)(F)F)s4)ncc23)CC1` [Example 362, N-ethyl-4-(6-(N-(3-methyloxetan-3-yl)sulfamoyl)-3-(5-(trifluoromethyl)-1,3,4-thiadiazol-2-yl)imidazo[1,5-a]pyridin-8-yl)piperazine-1-carboxamide], the IC50 on PARG was determined as 6.31 nM; in the assay with HCC1806, 158 nM.
For `CC1(NS(=O)(=O)c2cc(N3CCN(C(=O)C4CCOCC4)CC3)c3cnc(-c4nnc(C(F)(F)F)s4)n3c2)CC1` [Example 292, N-(1-methylcyclopropyl)-8-(4-(tetrahydro-2H-pyran-4-carbonyl)piperazin-1-yl)-3-(5-(trifluoromethyl)-1,3,4-thiadiazol-2-yl)imidazo[1,5-a]pyridine-6-sulfonamide] the same measures were 4.57 nM and 40 nM.
Taken in the same sequence, the figures for `CC(C)C(=O)N1CCN(c2cc(S(=O)(=O)NC3CC3)cn3c(-c4nnc(C(F)(F)F)s4)ncc23)CC1` [Example 210, N-cyclopropyl-8-(4-isobutyrylpiperazin-1-yl)-3-(5-(trifluoromethyl)-1,3,4-thiadiazol-2-yl)imidazo[1,5-a]pyridine-6-sulfonamide] were 83.2 nM and 929 nM.
For `CC1(NS(=O)(=O)c2cc(N3CCC(O)C(O)C3)c3cnc(-c4nnc(C(F)F)s4)n3c2)CC1` (centres unmarked) [Example 349, 3-(5-(difluoromethyl)-1,3,4-thiadiazol-2-yl)-8-(3,4-dihydroxypiperidin-1-yl)-N-(1-methylcyclopropyl)imidazo[1,5-a]pyridine-6-sulfonamide] the same measures were 3.98 nM and 455 nM.
Turning to `COC[C@H]1CN(c2cc(S(=O)(=O)NC3(C)COC3)cn3c(-c4nnc(C(F)F)s4)nc(Cl)c23)C[C@H](C)N1` [Example 403, 1-chloro-3-(5-(difluoromethyl)-1,3,4-thiadiazol-2-yl)-8-((3R,5S)-3-(methoxymethyl)-5-methylpiperazin-1-yl)-N-(3-methyloxetan-3-yl)imidazo[1,5-a]pyridine-6-sulfonamide], the IC50 against PARG was 21.9 nM; with HCC1806, 458 nM.
For the compound `CC(C)C(=O)N1CCN(c2cc(S(=O)(=O)NC3(C#N)CC3)cn3c(-c4nnc(C(F)F)s4)ncc23)C[C@H]1CO` [Example 222, (S)-N-(1-cyanocyclopropyl)-3-(5-(difluoromethyl)-1,3,4-thiadiazol-2-yl)-8-(3-(hydroxymethyl)-4-isobutyrylpiperazin-1-yl)imidazo[1,5-a]pyridine-6-sulfonamide], the IC50 amounted to 2.09 nM against PARG and 1670 nM with HCC1806.
For `COC(C)(C)C(=O)N1CCN(c2cc(S(=O)(=O)NC3(C#N)CC3)cn3c(-c4nnc(C(F)(F)F)s4)ncc23)CC1` [Example 296, N-(1-cyanocyclopropyl)-8-(4-(2-methoxy-2-methylpropanoyl)piperazin-1-yl)-3-(5-(trifluoromethyl)-1,3,4-thiadiazol-2-yl)imidazo[1,5-a]pyridine-6-sulfonamide] the same measures were 3.02 nM and 38.7 nM.
